“Also recorded” adds a separate entry of the source. Values belong to the molecule of their own block, whether it stands above or below them.
Key:
bRXFP1 = experiment: cAMP production, HEK293T cells transiently transfected with bRXFP1; format: cell-based, bovine; settings: for EC50: bRXFP1, transient transfection HEK293T, 20 min stimulation, cAMP by TRFIA, three-parameter non-linear regression, pRLN converted to nM assuming MW 6 kD and purity 85%, bINSL3 curve had not reached an asymptote at highest concentration; for stimulation of cAMP production: bRXFP1, within the range of concentration applied (Figure 9A)
Description: (§1) Preliminary studies, prior to the publication of the bovine genome project, had employed heterologous RT-PCR primers, derived from human sequence information, together with RNA from selected bovine tissues. Initial sequence information obtained was subsequently fully confirmed by the bovine genome project, which is used here for reference. Having confirmed by RT-PCR the correct sequences for the full-length functional bRXFP1 and bRXFP2 transcripts, expression constructs were generated, whereby the signal peptides of the two receptor sequences were replaced by the signal peptide-encoding sequence from the bovine prolactin gene, together with an intermediate short FLAG sequence, exactly as used previously for the expression of the human RXFP1 and RXFP2, and other G-protein coupled receptors (Hsu et al., [2000], [2002]). The two final bovine constructs were generated from assembled multiple oligonucleotides (custom gene synthesis by GeneArt, Regensburg, Germany), their sequences confirmed, and inserted into the vector pcDNA3.1/Zeo(+) (Invitrogen) for expression.
(§2) For transfection, the Neon electroporation system (Invitrogen) was used: the bRXFP1 or bRXFP2 expression plasmids were mixed with HEK 293T cells in a ratio of ~0.2 μg DNA/50,000 cells/well (48-well plate), and pulsed at 1,300 V for 30 ms to transfect the DNA into the cells. Plasmids were allowed to express for 24 h with the transfected cells cultured in DMEM/F12 (1:1) at 37°C with 5% CO2. In parallel, HEK 293T cells which had been permanently transfected with human RXFP1 or human RXFP2 (Heng et al., [2008]) were plated at 50,000 cells/well in a 48-well plate, and cultured overnight in DMEM/F12 (1:1) with 10% bovine fetal serum, 2 mM L-glutamine and 1% Penicillin-Streptomycin at 37°C with 5% CO2.
(§3) For the transient and permanently transfected HEK 293T cells and the primary myometrial (6,000 cells/well) and theca cells (20,000 cells/well), after the initial pre-culture period (as above) medium was changed and supplemented or not with 1 mM IBMX (3-isobutyl-1-methylxanthine; Sigma) as indicated (30 min for myometrial cells, 10 min for theca cells). Following this pre-incubation, cells were supplemented or not with various peptides, also as indicated in the figure legends, and incubation continued for a further 20 min. Total cAMP was extracted from the combined cells and culture medium from each well and measured by time-resolved fluorescent immunoassay (TRFIA) as described in Anand-Ivell et al. ([2007]). cAMP production by the transfected HEK 293 cells was measured directly (range1–243 pmol/ml); cAMP from primary myometrial and theca cells made use of the more sensitive TRFIA employing sample acetylation (detection range 0.04–9.72 pmol/ml).
(§4) All data were analyzed and plotted using GraphPad Prism 6. The EC50 values were calculated by non-linear regression of log (agonist) against response (three parameter). All column data were analyzed by ANOVA followed by Neuman-Keuls post-hoc test.

hRXFP1 = experiment: cAMP production, HEK 293T cells permanently transfected with hRXFP1; format: cell-based, human; settings: hRXFP1, permanently transfected HEK 293T, 20 min stimulation, cAMP by TRFIA, three-parameter non-linear regression, pRLN converted to nM assuming MW 6 kD and purity 85%
Experimental: as §2, §3, §4

bRXFP2 = experiment: cAMP production, HEK293T cells transiently transfected with bRXFP2; format: cell-based, bovine; settings: for stimulation of cAMP production: bRXFP2 (Figure 9B, Table 1); for EC50: bRXFP2, transient transfection HEK293T, 20 min stimulation, cAMP by TRFIA, three-parameter non-linear regression, pRLN converted to nM assuming MW 6 kD and purity 85%
Description: as §1, §2, §3, §4

hRXFP2 = experiment: cAMP production, HEK 293T cells permanently transfected with hRXFP2; format: cell-based, human; settings: for EC50: hRXFP2, permanently transfected HEK 293T, 20 min stimulation, cAMP by TRFIA, three-parameter non-linear regression, pRLN converted to nM assuming MW 6 kD and purity 85%, its curve had not reached an asymptote at highest concentration
Experimental: as §2, §3, §4

bovine myometrial cells = experiment: cAMP production in primary bovine myometrial cells; format: cell-based; settings: 20 min, 1 mM IBMX (Figure 8A)
Experimental: Bovine tissues were obtained from the local slaughterhouse. Tissue collection was in accordance with German, British and European laws and provisions for ethical regulation. Cumulus-oocyte complexes (COCs) were collected and categorized exactly as in Janowski et al. ([2012]). For oocyte RNA preparation, COCs were mechanically denuded using a glass pipette followed by a 2 min trypsin incubation (1x Trypsin-EDTA solution; T4174; Sigma, Deisenhofen, Germany) to remove residual cumulus cells, then frozen at −80°C. Bovine myometrial cells were prepared from excised uteri exactly as in Heng et al. ([2008]). The isolated myometrial cells were plated at 6,000 cells/well in a 48-well plate and cultured at 37°C with 5% CO2 for 5 days before stimulation. Bovine ovaries without an obvious corpus luteum were selected for the isolation of granulosa and theca interna cells from mid-phase antral follicles (ca. 6–10 mm diameter) using standard procedures (Holtorf et al., [1989]; Bathgate et al., [1999]). Follicular fluid, including COCs and granulosa cells, was aspirated from the follicles, and collected in granulosa culture medium (DMEM/F-12 (1:1) with 1% bovine fetal serum, 1% antibiotic-antimycotic (ABAM), 2 mM L-glutamine). After manually removing the COCs, the granulosa cells were harvested by centrifugation (150 g, 10 min) and rinsed once with culture medium as above. Four to six millimeters follicles were obtained by dissection. The theca interna layer of mid-phase antral follicles was peeled off and digested with collagenase IV (1 mg/ml) in Medium 199, including trypsin inhibitor (100 μg/ml) at 38°C for 1 h. The isolated theca cells were collected and washed in Medium 199 with 1% ABAM. […]
as §3, with “Following this pre-incubation, cells were supplemented or not with various peptides, also as indicated in the figure legends, and incubation continued for a further 20 min.” left out
as §4

beef cows = settings: applied locally or systemically to beef cows at term; ref Musah et al., 1987; cited from earlier work
Description: (§5) For many years there has been a controversy surrounding the existence or not of relaxin in ruminants, including cattle, sheep, and goats (Hartung et al., [1995]). A RLN2 homologous molecule is definitely expressed at the mRNA and/or protein levels in related ungulates, such as pigs, camels, llamas, and horses (James et al., [1977]; Stewart et al., [1991]; Bravo et al., [1996]; Hombach-Klonisch et al., [2000]; ncbi database: www-ncbi-nlm-nih-gov).

bovine luteal cells = bovine luteal cells in culture; ref Musah et al., 1990; cited from earlier work
Description: as §5

bovine sperm = settings: ref Miah et al., 2011; cited from earlier work
Description: as §5

RXFP1 = settings: ref Bathgate et al., 2006; cited from earlier work
Description: The relaxin family of peptide hormones includes, besides relaxin (RLN2), also relaxin 3 (RLN3), insulin-like peptide 3 (INSL3), INSL5, and INSL6. Additionally, within higher primates and humans there is RLN1 and INSL4. […] RLN2 and INSL3 on the other hand are usually expressed in reproductive tissues of both sexes and ...

bovine theca cells = experiment: cAMP production in primary bovine theca cells; format: cell-based; settings: 20 min, 1 mM IBMX (Figure 8B,C)
Experimental: Bovine tissues were obtained from the local slaughterhouse. Tissue collection was in accordance with German, British and European laws and provisions for ethical regulation. Cumulus-oocyte complexes (COCs) were collected and categorized exactly as in Janowski et al. ([2012]). For oocyte RNA preparation, COCs were mechanically denuded using a glass pipette followed by a 2 min trypsin incubation (1x Trypsin-EDTA solution; T4174; Sigma, Deisenhofen, Germany) to remove residual cumulus cells, then frozen at −80°C. Bovine myometrial cells were prepared from excised uteri exactly as in Heng et al. ([2008]). […]
as §3, with “Following this pre-incubation, cells were supplemented or not with various peptides, also as indicated in the figure legends, and incubation continued for a further 20 min.” left out, “pmol/ml). […]” for “pmol/ml).”

EC50 (bRXFP1): 10.8 nM | EC50 (hRXFP1): 0.4 nM | EC50 (hRXFP1; listed as porcine RLN): < 1 nM | EC50 (bRXFP2): 10.5 nM | EC50 (hRXFP2): > 12 nM
Molecule: porcine relaxin [pRLN]
stimulation of cAMP production (bRXFP1): showed any stimulation within the range of concentration applied | stimulation of cAMP production (bRXFP2): could stimulate at very high concentration | cAMP production (bovine myometrial cells): significant stimulation was observed at all concentrations applied | softening and dilatation response (beef cows): elicited a classic softening and dilatation response, thereby influencing calving period | oxytocin production (bovine luteal cells): significantly suppressed oxytocin production

EC50 (bRXFP1): 48.7 nM | EC50 (hRXFP1): 0.9 nM | EC50 (hRXFP1; listed as human RLN): < 1 nM | EC50 (bRXFP2): 27.3 nM | EC50 (hRXFP2): 53.9 nM
Molecule: recombinant human relaxin [rhRLN]
stimulation of cAMP production (bRXFP1): showed any stimulation within the range of concentration applied | stimulation of cAMP production (bRXFP2): could stimulate at very high concentration

Molecule: relaxin
cAMP production (bovine myometrial cells): significant increase in cAMP | sperm functional parameters (bovine sperm): significantly to affect bovine sperm functional parameters

Molecule: relaxin 3 [hRLN3]
EC50 (bRXFP1): 97.9 nM | stimulation of cAMP production (bRXFP1): showed any stimulation within the range of concentration applied | EC50 (hRXFP1): 14.6 nM | stimulation of cAMP production (bRXFP2): unable to stimulate | stimulation of cAMP production (bRXFP2; listed as RLN3): but not RLN3, could stimulate at very high concentration | stimulation of cAMP production (hRXFP2; hRXFP2 (Table 1)): unable to stimulate | affinity at RXFP1 (RXFP1): reduced affinity

EC50 (bRXFP2): 0.7 nM | EC50 (bRXFP2; listed as bovine INSL3): < 1 nM | EC50 (hRXFP2): 0.6 nM
B1: bovine INSL3 (protein, UniProt O77801 22-66; O77801 27-66; O77801 107-132, looked up)
Insulin-like 3 B' chain: GPAAAQEAPEKLCGHHFVRALVRLCGGPRWSSEEDGRPVAGGDRE
Insulin-like 3 B chain: QEAPEKLCGHHFVRALVRLCGGPRWSSEEDGRPVAGGDRE
Insulin-like 3 A chain: ATAINPARHCCLSGCTRQDLLTLCPH
notes: bovine insulin-like peptide 3, cognate ligand of bovine RXFP2
stimulation of cAMP production (bRXFP2): effective at low concentrations | cAMP production (bovine myometrial cells; listed as INSL3): significant increase in cAMP | cAMP production (bovine myometrial cells; listed as bovine INSL3): significant stimulation was observed at all concentrations applied | cAMP production (bovine theca cells): dose-dependent increase in cAMP; also recorded: able significantly to stimulate cAMP production in a dose-dependent manner

EC50 (bRXFP2): 0.6 nM | EC50 (hRXFP2): 0.7 nM
B2: human INSL3 (protein, UniProt P51460 21-55; P51460 106-131, looked up)
Insulin-like 3 B chain: LGPAPTPEMREKLCGHHFVRALVRVCGGPRWSTEA
Insulin-like 3 A chain: AAATNPARYCCLSGCTQQDLLTLCPY
notes: human insulin-like peptide 3

From article PMC5459885, “Relaxin-Family Peptide Receptors 1 and 2 Are Fully Functional in the Bovine” (Frontiers in Physiology, 2017)
